Test results taken from ChEMBL document CHEMBL5053540, “Synthesis and biological evaluation of isatin derivatives containing 1,3,4-thiadiazole as potent a-glucosidase inhibitors” (Bioorg Med Chem Lett, 2021).
Activity calls are given as the source filed them. No cut-off for these calls is given here.

How the values were obtained:
[1] = Inhibition of Saccharomyces cerevisiae alpha-glucosidase using pNPG as substrate
Saccharomyces cerevisiae [2] = assay: Non-competitive inhibition of Saccharomyces cerevisiae alpha-glucosidase assessed as decrease in Vmax without affecting Km using varying levels of p-NPG as substrate by Lineweaver-burk plot analysis
[3] = Non-competitive inhibition of Saccharomyces cerevisiae alpha-glucosidase assessed as inhibition constant by secondary re-plot of Lineweaver-burk plot analysis
Saccharomyces cerevisiae [4] = assay: Potency index, ratio of resveratrol IC50 to test compound IC50 for inhibition of Saccharomyces cerevisiae alpha-glucosidase using pNPG as substrate

Row | Structure (SMILES) | IC50 [1] | further results
1 | N#Cc1cccc(CN2C(=O)/C(=N\Nc3nncs3)c3ccccc32)c1 | > 200 µM | 
2 | Oc1ccc(/C=C/c2cc(O)cc(O)c2)cc1 [RESVERATROL] | 22 µM | 
3 | O=C1/C(=N\Nc2nncs2)c2ccccc2N1Cc1ccccc1Br | 13.2 µM | 
4 | O=C1/C(=N\Nc2nncs2)c2ccccc2N1Cc1ccc(Cl)cc1 | 3.12 µM | inhibition (Saccharomyces cerevisiae [2]): Active; Ki [3]: 2.76 µM; Ratio IC50 (Saccharomyces cerevisiae [4]): 7
5 | COc1ccc(CN2C(=O)/C(=N\Nc3nncs3)c3ccccc32)cc1 | 46 µM | 
6 | COc1cccc(CN2C(=O)/C(=N\Nc3nncs3)c3ccccc32)c1 | 42.3 µM | 
7 | N#Cc1ccccc1CN1C(=O)/C(=N\Nc2nncs2)c2ccccc21 | > 200 µM | 
8 | O=C1/C(=N\Nc2nncs2)c2ccccc2N1Cc1ccccc1F | 18.4 µM | 
9 | O=C1/C(=N\Nc2nncs2)c2ccccc2N1Cc1ccccc1 | 21 µM | 
10 | Cc1ccc(CN2C(=O)/C(=N\Nc3nncs3)c3ccccc32)cc1 | 29.2 µM | 
11 | Cc1cccc(CN2C(=O)/C(=N\Nc3nncs3)c3ccccc32)c1 | 32.3 µM | 
12 | O=C1/C(=N\Nc2nncs2)c2ccccc2N1Cc1ccccc1Cl | 8.5 µM | 
13 | O=C1/C(=N\Nc2nncs2)c2ccccc2N1Cc1cccc(Cl)c1 | 7.25 µM | 
14 | Cc1ccccc1CN1C(=O)/C(=N\Nc2nncs2)c2ccccc21 | 25.1 µM | 
